Assay results as given in PMC2788676 (Journal of medicinal chemistry, 2009).

Legend:
μ-opioid receptor = conditions: read-out: μ-opioid receptor Ki; cited from earlier work
δ-opiate receptor = δ-opiate receptor (Homo sapiens, UniProt P41143); test: [3H]DADLE opioid receptor binding, transfected CHO cells; conditions: relative to μ Ki
κ-opiate receptor = κ-opiate receptor (Homo sapiens, UniProt P41145); test: [3H]U69,593 opioid receptor binding, transfected CHO cells; conditions: relative to μ Ki
human μ-opiate receptor = human μ-opiate receptor (Homo sapiens, UniProt P35372); test: [35S]GTP-γ-S functional binding assay, CHO hMOR cells; format: biochemical; conditions: for efficacy as μ-agonist (in words): [35S]GTP-γ-S functional assay; for Emax: read-out: μ-Agonism Emax %
Sequence of human μ-opiate receptor (P35372 whole entry): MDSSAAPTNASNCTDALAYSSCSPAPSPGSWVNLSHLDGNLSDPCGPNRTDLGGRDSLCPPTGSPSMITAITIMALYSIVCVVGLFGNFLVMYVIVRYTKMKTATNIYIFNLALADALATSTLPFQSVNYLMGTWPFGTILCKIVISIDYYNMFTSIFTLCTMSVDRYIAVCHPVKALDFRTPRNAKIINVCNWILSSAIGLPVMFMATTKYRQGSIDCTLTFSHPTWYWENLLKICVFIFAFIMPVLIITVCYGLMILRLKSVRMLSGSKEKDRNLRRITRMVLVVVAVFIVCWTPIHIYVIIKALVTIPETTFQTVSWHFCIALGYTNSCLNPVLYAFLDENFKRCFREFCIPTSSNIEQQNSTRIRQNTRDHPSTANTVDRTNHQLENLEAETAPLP

Sequence of δ-opiate receptor (P41143 whole entry): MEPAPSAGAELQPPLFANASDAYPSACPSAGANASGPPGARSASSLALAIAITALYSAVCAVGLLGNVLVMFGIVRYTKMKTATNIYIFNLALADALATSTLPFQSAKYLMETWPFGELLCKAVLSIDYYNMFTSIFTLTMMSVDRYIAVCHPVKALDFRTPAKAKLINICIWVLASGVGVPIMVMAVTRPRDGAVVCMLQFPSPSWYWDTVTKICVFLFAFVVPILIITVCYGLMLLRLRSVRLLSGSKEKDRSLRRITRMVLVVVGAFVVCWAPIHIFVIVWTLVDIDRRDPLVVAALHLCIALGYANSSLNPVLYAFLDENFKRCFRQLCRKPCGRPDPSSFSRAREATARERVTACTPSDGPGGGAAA
Sequence of κ-opiate receptor (P41145 whole entry): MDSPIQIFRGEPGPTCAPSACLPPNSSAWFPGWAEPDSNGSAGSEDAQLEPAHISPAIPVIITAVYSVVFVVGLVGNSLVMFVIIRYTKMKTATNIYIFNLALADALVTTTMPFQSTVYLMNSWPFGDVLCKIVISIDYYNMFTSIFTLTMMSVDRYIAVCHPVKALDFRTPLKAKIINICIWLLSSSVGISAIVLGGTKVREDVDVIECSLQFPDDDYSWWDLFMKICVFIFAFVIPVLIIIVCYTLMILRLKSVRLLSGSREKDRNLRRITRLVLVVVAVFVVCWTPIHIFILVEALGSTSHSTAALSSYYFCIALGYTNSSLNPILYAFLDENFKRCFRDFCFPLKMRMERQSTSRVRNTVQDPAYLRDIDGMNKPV

| Compound | Ki (μ-opioid receptor) [nM] | fold less affinity at the δ-receptor than at the μ-receptor (δ-opiate receptor) | fold less affinity at the κ-receptor than at the μ-receptor (κ-opiate receptor) | EC50 (human μ-opiate receptor) [nM] | efficacy as μ-agonist (in words) (human μ-opiate receptor) | Emax (human μ-opiate receptor) [%] | Kb (human μ-opiate receptor) [nM] |
| --- | --- | --- | --- | --- | --- | --- | --- |
| Oc1ccc2c(c1)[C@]13CCC[C@H](C1)NC[C@@H]3O2 (single isomer, unassigned) [para-d isomer, (3R*,6aS*11aR*)-1,3,4,5,6,11a-hexahydro-2H-3,6a-methanobenzofuro[2,3-c]azocin-8-ol] | 1220 |  |  |  |  |  |  |
| CC[C@@]12CCN(CCc3ccccc3)C[C@@H]1Oc1ccc(O)cc12 [Compound 22, 4aS,9aR-(−)-cis-4a-Ethyl-2-(2-phenylethyl)-1,2,3,4,4a,9a-hexahydrobenzofuro[2,3-c]pyridin-6-ol] |  | more than 100 fold | more than 100 fold | 24 ± 6 | potent agonist | 84 ± 4 |  |
| CC[C@@]12CCNC[C@@H]1Oc1ccc(O)cc12 [Compound 20, 4aS,9aR-(−)-cis-4a-Ethyl-1,2,3,4,4a,9a-hexahydrobenzofuro[2,3-c]pyridin-6-ol] |  |  |  | 150 ± 25 |  | 97 ± 4 | 95 |
| CC[C@@]12CCN(C[C@H](O)c3ccccc3)C[C@@H]1Oc1ccc(O)cc12 [Compound 24, 4aS,9aR,2′R-(−)-cis-2-(2′-Hydroxy-2-phenylethyl)-4a-ethyl-1,2,3,4,4a,9a-hexahydrobenzofuro[2,3-c]pyridin-6-ol] |  |  |  | 480 ± 90 |  | 36 ± 2 |  |
| CC[C@@]12CCN(C[C@@H](O)c3ccccc3)C[C@@H]1Oc1ccc(O)cc12 [Compound 23, 4aS,9aR,2′S-(−)-cis-2-(2′-Hydroxy-2-phenylethyl)-4a-ethyl-1,2,3,4,4a,9a-hexahydrobenzofuro[2,3-c]pyridin-6-ol] |  |  |  | 560 ± 60 |  | 100 ± 3 |  |
| CC[C@@]12CCN(C)C[C@@H]1Oc1ccc(O)cc12 [Compound 21, 4aS,9aR-(−)-cis-4a-Ethyl-2-methyl-1,2,3,4,4a,9a-hexahydrobenzofuro[2,3-c]pyridin-6-ol] |  |  |  | 241 ± 47 | little efficacy | 45 ± 2 |  |
